From patent US20220169654A1, “New Organic Compounds” (Servier Pharmaceuticals LLC, priority 2020, published 2022)

What was measured:
MAT2A homodimer = target: T1, MAT2A homodimer (Homo sapiens, UniProt P31153); experiment: MAT2A inhibition (biochemical, liberated phosphate, PiColorLock Gold); settings: recombinant MAT2A homodimer; IC50 bin with Max Inh.; read-out: Enzyme Inhibition Bin
T1 construct: inferred from Ni sepharose purification with imidazole elution; made in house; host or cells: Sf9 insect cells, baculovirus (Bac to Bac, pFASTBAC1)
T1 sequence (P31153 whole entry): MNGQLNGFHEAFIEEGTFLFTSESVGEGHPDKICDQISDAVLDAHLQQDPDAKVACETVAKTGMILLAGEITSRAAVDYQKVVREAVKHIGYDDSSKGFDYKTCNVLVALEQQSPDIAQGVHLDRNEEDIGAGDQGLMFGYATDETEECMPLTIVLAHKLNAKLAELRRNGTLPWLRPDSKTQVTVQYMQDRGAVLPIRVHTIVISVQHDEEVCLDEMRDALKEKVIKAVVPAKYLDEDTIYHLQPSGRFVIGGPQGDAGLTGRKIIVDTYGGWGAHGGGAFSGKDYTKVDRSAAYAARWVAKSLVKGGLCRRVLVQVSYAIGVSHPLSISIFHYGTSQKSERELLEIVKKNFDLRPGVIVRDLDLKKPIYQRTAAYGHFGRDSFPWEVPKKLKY
Summary of the method: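 Enzyme at 4 μg/mL and compound equilibrated 60 min at 25 °C, then 60 min reaction after adding substrate mix (500 μM ATP, 400 μM methionine). Released phosphate quantified by colorimetric kit against a phosphate standard curve to give IC50. Secondary format used 1 μg/mL enzyme with 5 h incubation.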

HCT116 MTAP+/+ = experiment: Inhibition of cellular proliferation, 4 days, Cell Titer Glo, HCT116 MTAP+/+; format: cell-based; settings: Homo sapiens, HCT-116, 96 h, IC50 bin with Max Inh., read-out: 4 Day Relative Growth Inhibition (MTAP +/+)
Summary of the method: (§1)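 IC50 derived from blank-corrected ATP luminescence (Cell Titer Glo) expressed relative to within-plate 0.2% DMSO wells. Compound, as a 10-point 3-fold series, was added 24 h after seeding the MTAP+/+ or MTAP−/− HCT116 cells and incubated 4 days at 37° C./5% CO2.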

[1] = test system: SAM in HCT116 human colon carcinoma cell line with MTAP gene deleted (MTAP −/−); experiment: Cellular assay of target engagement (SAM), LC-MS/MS, 72 hrs; format: cell-based; settings: HCT-116, IC50 bin with Max Inh., read-out: Cell 72 h SAM Inhibition (MTAP −/−)
Summary of the method: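 SAM levels were quantified by LC-MS/MS (m/z 399.2→250.1, d3-SAM internal standard) from cold methanol/acetic acid extracts, yielding IC50. Compound was applied as a 10-point 3-fold series for 72 hrs to MTAP −/− HCT116 cells seeded 24 hours before.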

HCT116 MTAP−/− = experiment: Inhibition of cellular proliferation, 4 days, Cell Titer Glo, HCT116 MTAP−/−; format: cell-based; settings: Homo sapiens, HCT-116, 96 h, IC50 bin with Max Inh., read-out: 4 Day Relative Growth Inhibition (MTAP −/−)
Summary of the method: as §1

SMILES	IC50 (MAT2A homodimer) [nM]	IC50 (HCT116 MTAP+/+) [nM]	IC50 [1] [nM]	IC50 (HCT116 MTAP−/−) [nM]
Cc1ccc(-c2c(=O)n(-c3ccc4nn(C)cc4c3)nc3c(CO)cn(CC4CC4)c23)cn1 [Example 255, 5-(cyclopropylmethyl)-7-(hydroxymethyl)-2-(2-methyl-2H-indazol-5-yl)-4-(6-methylpyridin-3-yl)-2,5-dihydro-3H-pyrrolo[3,2-c]pyridazin-3-one]	< 100	100 to 1000	< 100	< 100
CCc1ccc(-c2c(=O)n(-c3ccc4nn(C)cc4c3)nc3c(C#N)cn(CC4CC4)c23)cn1 [Example 136, 5-(cyclopropylmethyl)-4-(6-ethylpyridin-3-yl)-2-(2-methyl-2H-indazol-5-yl)-3-oxo-3,5-dihydro-2H-pyrrolo[3,2-c]pyridazine-7-carbonitrile]	< 100	100 to 1000	< 100	< 100
Cc1ccc(-c2c(=O)n(-c3ccc4nn(C)cc4c3)nc3[nH]c(=O)n(CC4CC4)c23)cn1 [Example 207, 5-(cyclopropylmethyl)-2-(2-methyl-2H-indazol-5-yl)-4-(6-methylpyridin-3-yl)-2,7-dihydro-3H-imidazo[4,5-c]pyridazine-3,6(5H)-dione]	< 100	> 1000	< 100	100 to 1000
Cc1nc2ccc(-n3nc4c(C#N)cn(CC5CC5)c4c(-c4ccc(C(F)F)nc4)c3=O)cc2n1C [Example 147, 5-(cyclopropylmethyl)-4-(6-(difluoromethyl)pyridin-3-yl)-2-(1,2-dimethyl-1H-benzo[d]imidazol-6-yl)-3-oxo-3,5-dihydro-2H-pyrrolo[3,2-c]pyridazine-7-carbonitrile]	< 100	100 to 1000	< 100	< 100
[2H]C([2H])([2H])n1cc2cc(-n3nc4c(C#N)cn(CC5CC5)c4c(-c4ccc(C5CC5)nc4)c3=O)ccc2n1 [Example 270, 5-(cyclopropylmethyl)-4-(6-cyclopropylpyridin-3-yl)-2-(2-(methyl-d3)-2H-indazol-5-yl)-3-oxo-3,5-dihydro-2H-pyrrolo[3,2-c]pyridazine-7-carbonitrile]	< 100	100 to 1000	< 100	< 100
CNC(=O)c1cn(CC2CC2)c2c(-c3ccc(OC(F)F)cc3)c(=O)n(-c3ccc4nn(C)cc4c3)nc12 [Example 169, 5-(cyclopropylmethyl)-4-(4-(difluoromethoxy)phenyl)-N-methyl-2-(2-methyl-2H-indazol-5-yl)-3-oxo-3,5-dihydro-2H-pyrrolo[3,2-c]pyridazine-7-carboxamide]	< 100	100 to 1000	< 100	< 100
Cn1cc2cc(-n3nc4c(c(-c5ccc(C6CC6)cc5)c3=O)n(CC3CC3)c(=O)n4C)ccc2n1 [Example 200, 5-(cyclopropylmethyl)-4-(4-cyclopropylphenyl)-7-methyl-2-(2-methyl-2H-indazol-5-yl)-2,7-dihydro-3H-imidazo[4,5-c]pyridazine-3,6(5H)-dione]	< 100	100 to 1000	< 100	< 100
Cc1nc2nn(-c3ccc4nn(C)cc4c3)c(=O)c(-c3ccc(OC(F)F)cc3)c2n1CC1CC1 [Example 191, 5-(cyclopropylmethyl)-4-(4-(difluoromethoxy)phenyl)-6-methyl-2-(2-methyl-2H-indazol-5-yl)-2,5-dihydro-3H-imidazo[4,5-c]pyridazin-3-one]	< 100	> 1000	< 100	< 100
[2H]C([2H])([2H])Oc1ccc(-n2nc3ccn(CC4CC4)c3c(-c3ccc(C(F)F)nc3)c2=O)cc1 [Example 132, 5-(cyclopropylmethyl)-4-(6-(difluoromethyl)pyridin-3-yl)-2-(4-(methoxy-d3)phenyl)-2,5-dihydro-3H-pyrrolo[3,2-c]pyridazin-3-one]	< 100	> 1000	100 to 1000	100 to 1000
Cn1cc2cc(-n3nc4c(c(-c5ccc(C6CC6)nc5)c3=O)N(CC3CC3)CC4(C)C)ccc2n1 [Example 260, 5-(cyclopropylmethyl)-4-(6-cyclopropylpyridin-3-yl)-7,7-dimethyl-2-(2-methyl-2H-indazol-5-yl)-2,5,6,7-tetrahydro-3H-pyrrolo[3,2-c]pyridazin-3-one]	1000 to 10000	> 1000	> 1000	> 1000
Cc1nn(CC2CC2)c2c(-c3ccc(C4CC4)cc3)c(=O)n(-c3ccc4nn(C)cc4c3)nc12 [Example 213, 1-(cyclopropylmethyl)-7-(4-cyclopropylphenyl)-3-methyl-5-(2-methyl-2H-indazol-5-yl)-1,5-dihydro-6H-pyrazolo[4,3-c]pyridazin-6-one]	< 100	> 1000	< 100	< 100
Cn1cc2cc(-n3nc4c(C#N)cn(CC5CC5)c4c(-c4ccc(C#N)cc4)c3=O)ccc2n1 [Example 149, 4-(4-cyanophenyl)-5-(cyclopropylmethyl)-2-(2-methyl-2H-indazol-5-yl)-3-oxo-3,5-dihydro-2H-pyrrolo[3,2-c]pyridazine-7-carbonitrile]	< 100	> 1000	100 to 1000	100 to 1000
COc1ccc(-c2c(=O)n(-c3ccc4nn(C)cc4c3)nc3c(C#N)cn(CC4CC4)c23)cn1 [Example 111, 5-(cyclopropylmethyl)-4-(6-methoxypyridin-3-yl)-2-(2-methyl-2H-indazol-5-yl)-3-oxo-3,5-dihydro-2H-pyrrolo[3,2-c]pyridazine-7-carbonitrile]	< 100	> 1000	< 100	< 100
Cn1cc2cc(-n3nc4c(CO)cn(CC5CC5)c4c(-c4ccc(C5CC5)nc4)c3=O)ccc2n1 [Example 239, 5-(cyclopropylmethyl)-4-(6-cyclopropylpyridin-3-yl)-7-(hydroxymethyl)-2-(2-methyl-2H-indazol-5-yl)-2,5-dihydro-3H-pyrrolo[3,2-c]pyridazin-3-one]	< 100	< 100	< 100	< 100

Next, values leading:

IC50 (MAT2A homodimer) [nM]	IC50 (HCT116 MTAP+/+) [nM]	IC50 [1] [nM]	IC50 (HCT116 MTAP−/−) [nM]	SMILES
< 100	> 1000	< 100	< 100	Cn1cc2cc(-n3nc4c(C#N)cn(CC5CC5)c4c(-c4ccc(OC(F)F)cc4)c3=O)ccc2n1 [Example 102, 5-(cyclopropylmethyl)-4-(4-(difluoromethoxy)phenyl)-2-(2-methyl-2H-indazol-5-yl)-3-oxo-3,5-dihydro-2H-pyrrolo[3,2-c]pyridazine-7-carbonitrile]
< 100	100 to 1000	< 100	< 100	Cn1cc2cc(-n3nc4ncn(CC5CC5)c4c(-c4ccc(Cl)cc4)c3=O)ccc2n1 [Example 188, 4-(4-chlorophenyl)-5-(cyclopropylmethyl)-2-(2-methyl-2H-indazol-5-yl)-2,5-dihydro-3H-imidazo[4,5-c]pyridazin-3-one]
< 100	100 to 1000	< 100	< 100	Cn1cc2cc(-n3nc4c(Cl)cn(CC5CC5)c4c(-c4ccc(C5CC5)nc4)c3=O)ccc2n1 [Example 233, 7-chloro-5-(cyclopropylmethyl)-4-(6-cyclopropylpyridin-3-yl)-2-(2-methyl-2H-indazol-5-yl)-2,5-dihydro-3H-pyrrolo[3,2-c]pyridazin-3-one]
< 100	100 to 1000	< 100	< 100	CN1CCOc2ccc(-n3nc4ccn(CC5CC5)c4c(-c4ccc(OC(F)F)cc4)c3=O)cc21 [Example 227, 5-(cyclopropylmethyl)-4-(4-(difluoromethoxy)phenyl)-2-(4-methyl-3,4-dihydro-2H-benzo[b][1,4]oxazin-6-yl)-2,5-dihydro-3H-pyrrolo[3,2-c]pyridazin-3-one]
< 100	> 1000	100 to 1000	100 to 1000	Cn1cc2cc(-n3nc4c(C#N)cn(CC(F)(F)F)c4c(-c4ccc(C5CC5)nc4)c3=O)ccc2n1 [Example 133, 4-(6-cyclopropylpyridin-3-yl)-2-(2-methyl-2H-indazol-5-yl)-3-oxo-5-(2,2,2-trifluoroethyl)-3,5-dihydro-2H-pyrrolo[3,2-c]pyridazine-7-carbonitrile]
< 100	100 to 1000	< 100	< 100	Cn1cc2cc(-n3nc4ncn(CC5CC5)c4c(-c4ccc(C5CC5)cc4)c3=O)ccc2n1 [Example 192, 5-(cyclopropylmethyl)-4-(4-cyclopropylphenyl)-2-(2-methyl-2H-indazol-5-yl)-2,5-dihydro-3H-imidazo[4,5-c]pyridazin-3-one]
< 100	> 1000	< 100	100 to 1000	[2H]C([2H])([2H])Oc1ccc(-c2c(=O)n(-c3ccc4nn(C)cc4c3)nc3[nH]c(=O)n(CC4CC4)c23)cc1 [Example 206, 5-(cyclopropylmethyl)-4-(4-(methoxy-d3)phenyl)-2-(2-methyl-2H-indazol-5-yl)-2,7-dihydro-3H-imidazo[4,5-c]pyridazine-3,6(5H)-dione]
